Assays:
[1] = molecular target: T1, Nox5 (Homo sapiens, UniProt Q96PH1); assay: chemiluminescence of ROS in ionomycin-stimulated Nox5-transfected HEK cells; format: cell-based
T1 sequence (Q96PH1 1-765): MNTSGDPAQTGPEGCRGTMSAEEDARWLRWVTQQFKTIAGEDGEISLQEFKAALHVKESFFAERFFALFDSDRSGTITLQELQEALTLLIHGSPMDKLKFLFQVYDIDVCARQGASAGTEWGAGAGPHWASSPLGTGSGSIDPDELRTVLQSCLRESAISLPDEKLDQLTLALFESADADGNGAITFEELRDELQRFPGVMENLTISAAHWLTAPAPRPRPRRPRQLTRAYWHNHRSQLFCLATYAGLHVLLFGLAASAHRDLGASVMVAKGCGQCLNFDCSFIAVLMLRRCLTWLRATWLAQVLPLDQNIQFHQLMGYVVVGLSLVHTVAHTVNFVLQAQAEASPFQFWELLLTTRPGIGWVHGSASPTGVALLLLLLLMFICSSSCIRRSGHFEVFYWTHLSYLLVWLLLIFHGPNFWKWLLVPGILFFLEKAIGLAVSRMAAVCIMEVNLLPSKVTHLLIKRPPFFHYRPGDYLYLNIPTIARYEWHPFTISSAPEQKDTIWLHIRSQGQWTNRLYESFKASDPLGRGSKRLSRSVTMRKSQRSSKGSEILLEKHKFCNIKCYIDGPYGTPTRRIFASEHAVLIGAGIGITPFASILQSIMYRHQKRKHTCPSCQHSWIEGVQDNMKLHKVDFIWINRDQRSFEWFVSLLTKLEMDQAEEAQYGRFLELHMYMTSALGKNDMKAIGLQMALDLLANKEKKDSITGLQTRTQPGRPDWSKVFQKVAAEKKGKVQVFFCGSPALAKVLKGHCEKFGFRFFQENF
Source text: chemiluminescence of ROS in ionomycin-stimulated Nox5-transfected HEK cells on Nox5 | stably transfected Nox5 overexpressing HEK cells were stimulated with ionomycin. This activity could be quenched completely by DPI

[2] = molecular target: T2, NADPH oxidase 4 (Nox4) (Homo sapiens, UniProt Q9NPH5); assay: luminol chemiluminescence of ROS in HEK cells expressing Nox4, normalized to pcDNA cells; mitochondrial ROS scavenging counterscreen; format: cell-based
T2 sequence (Q9NPH5 1-578): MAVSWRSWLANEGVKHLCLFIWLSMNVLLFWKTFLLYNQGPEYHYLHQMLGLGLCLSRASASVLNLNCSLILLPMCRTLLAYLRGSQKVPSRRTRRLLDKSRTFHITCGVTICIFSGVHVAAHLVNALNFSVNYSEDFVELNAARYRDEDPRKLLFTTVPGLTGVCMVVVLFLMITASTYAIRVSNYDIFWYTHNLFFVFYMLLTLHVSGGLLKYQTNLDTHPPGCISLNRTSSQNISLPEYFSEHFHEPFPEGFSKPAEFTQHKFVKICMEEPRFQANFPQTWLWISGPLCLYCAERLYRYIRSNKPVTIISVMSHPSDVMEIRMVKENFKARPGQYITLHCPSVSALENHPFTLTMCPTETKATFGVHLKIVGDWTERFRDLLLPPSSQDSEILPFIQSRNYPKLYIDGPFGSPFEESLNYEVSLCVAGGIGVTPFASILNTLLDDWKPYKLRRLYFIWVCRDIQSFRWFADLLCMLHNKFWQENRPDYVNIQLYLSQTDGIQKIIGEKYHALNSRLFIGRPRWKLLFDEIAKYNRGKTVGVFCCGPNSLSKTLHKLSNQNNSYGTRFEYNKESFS

SMILES	chemiluminescence of ROS in ionomycin-stimulated Nox5-transfected HEK cells [1]	IC50 [2] [nM]
c1ccc2c(c1)[I+]c1ccccc1-2 [DPI, diphenyleneiodonium]	stably transfected Nox5 overexpressing HEK cells were stimulated with ionomycin. This activity could be quenched completely by DPI	–
O=C(/C=C/c1ccc(O)c(O)c1)O[C@H](Cc1ccc(O)c(O)c1)C(=O)O [RA, rosmarinic acid]	–	1000
